Data: US6645514B1, “Increasing skin cell renewal with water-soluble Vitamin E” (Access Business Group International, LLC, priority 2002, dated 2003)

How the values were obtained:
[1] = system: skin; experiment: skin cell-renewal (exfoliation) rate after topical application; type: in vivo, human
Description: (§1) Skin irritation, expressed as a “Sting” percentage, was also determined. The increase in skin cell renewal rate and irritation level was measured substantially according to the procedure described in Soap/Cosmetics/Chemical Specialties for September 1993 at pp. 54-58 and 76.

[2] = system: skin; experiment: skin irritation level (Sting %) after topical application; type: in vivo, human
Description: as §1

[3] = cited from earlier work
[4] = 0.5 wt % active, composition pH 5.65
[5] = 1.0 wt % active, composition pH 7.21

Structure (SMILES): CC(O)C(=O)O (centres unmarked) [Lactic Acid, reference compound]
- Cell-Renewal Rate % ([1]; 5 wt % active, composition pH 3): 31.7%

Structure (SMILES): Cc1c(C)c2c(c(C)c1OP(=O)(O)O)CC[C@@](C)(CCC[C@H](C)CCC[C@H](C)CCCC(C)C)O2 [VEP, Sodium Vitamin E Phosphate]
- Irritation Level (Sting %) [2, 4]: 17.3%
- Irritation Level (Sting %) [2, 5]: 10.7%
- irritation to the skin relative to Lactic Acid ([2]; at pH 7.21, relative to Lactic Acid): about one-twentieth
- times less irritating to the skin than Lactic Acid ([2]; relative to Lactic Acid 5 wt %, pH 3): at least 4.5 times
- solubility in water [3]: soluble in water
- Cell-Renewal Rate % [1, 4]: 15.2%
- Cell-Renewal Rate % [1, 5]: 16.6%
